According to patent US6841661B2, “Glycopeptide antibacterial compounds, compositions containing same and methods of using same” (Princeton Univerisity, priority 1999, dated 2005):
Values after ≈ are worked out from the molar mass of the structure shown.

Assays:
Assay type in all cases: cell-based
[1] = tested on: E. faecium CL 5242 (VanA); test: microbe, parasite or virus in culture; details: for MIC, CL5242: E. faecium CL 5242 (VanA)
Summary of the method: (§1)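 Twofold broth microdilution per modified NCCLS M7-A4, 35 °C. Enterococci and VISA/MRSA in BHI (VISA/MRSA precultured in TSB + 10% HS), E. coli in MH II. Inocula ~1-5×10^6 CFU/ml for enterococci, ~3-7×10^5 CFU/ml otherwise. MIC is the lowest concentration with no visible growth, read at 18-20 hr (E. coli) or 22-24 hr.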

[2] = tested on: E. coli ASP #49 (envA-); test: In vitro MIC panel assay (NCCLS broth microdilution); details: Escherichia coli
Description: (§2) National Committee for Clinical Laboratory Standards (NCCLS) guidelines [Methods for Dilution Antimicrobial Susceptibility Tests for Bacteria that Grow Aerobically-Fourth Edition; Approved Standard (NCCLS Document M7-A4, January 1997)] are used to establish the assay, although variations are made to optimize the published method according to the specific needs of the present investigation.
(§3) The test panel currently includes eight enterococci and 13 staphylococci, which are selected based upon their antibiotic susceptibility profiles. The methicillin-sensitive Staphylococcus aureus (MSSA) strain MB2985 (Smith isolate) is used to assesses the potential for serum protein binding of the compounds. The paired Gram-negative strains ASP #49 (envA-) and ASP #50 (envA+) (M. Salvatore/N. Lee) are included to judge membrane effects. Table 3 presents a detailed description of the strains included in the panel, including some of the sources of the strains of bacteria.
(§4) The glycopeptide antibiotic teicoplanin is included whenever possible.
(§5) TSB, containing 10% HS* for vancomycin intermediate S. aurcus/methicillin-resistant S. aureus (VISA/MRSA) strains, is inoculated from an appropriate source (frozen broth or agar slant) and grown approximately 17 hr at 35° C. with shaking at 220 rpm. Cultures are grown in tubes with a volume of 5 ml for enterococci and 2 ml for all other strains.
(§6) Four milliliter (4 ml) overnight culture is added to 36 ml physiological saline to obtain tenfold dilutions (enterococci). Overnight culture (0.4 ml) is added to 39.6 ml saline to obtain 100-fold dilutions (all strains except enterococci). Diluted cultures are maintained on ice until time of inoculation of test plates.
(§7) The number of CFU/mL is determined on BHI agar plates, although this is not done routinely because titers of overnight cultures are relatively constant. The test media include: • BHI for enterococci and VISA/MRSA; • MH II (i.e., cation-adjusted Mueller-Hinton broth) for MRS, MSS and E. coli.; • MH II+HSA for MSSA is prepared as follows: • a. 2×MHII+86mg/ml HSA • b. Dissolve 4.3 g HSA in 50 ml autoclaved 2x MH II. • c. pH to 7.0 by adding 2M MOPS, sodium. • d. Filter sterilize using 0.22 μm Coming cellulose acetate filter, used because of reported low protein binding. • e. 1×MH II+43 mg/ml HSA • f. Dilute the 2×medium twofold and filter as above. 5.8.6. Preparation of Test Plates
(§8) Using a Denley liquid handling system (or similar automatic device), 100 μ1×medium is added to each well in columns 2-12 of a 96-well microtiter dish. Using a multichannel pipettor, 100 μl 2×medium is added to each well in column 1. Plates may be filled on the day prior to assay, wrapped in plastic bags and refrigerated.
(§9) Vancomycin, Schering 29482, and teicoplanin are prepared on a weight per volume basis using 10 mM 3-(N-morpholino)propane-sulfonic acid (MOPS) buffer pH 7. Test compounds are received in solution in appropriate solvent (typically as 1 mg/ml in DMSO) or are dissolved in appropriate solvent prior to further dilution in 10 mM MOPS buffer, ph7. Consistent with NCCLS guidelines, antibiotics are handled aseptically but are not otherwise sterilized.
(§10) 100 μl appropriately diluted antibiotic solution is added to the first well of the designated row of the 96-well microtiter dish and serially diluted by twofold across the row using the Denley liquid handling system. With the aid of a Dynatech NEC 2000 inoculator, each well of the microtiter dish is inoculated with 1.5 μl diluted overnight culture, yielding approximately 1-5×10^6 CFU/ml for enterococci and approximately 3-7×10^5 CFU/ml for all other strains. Dishes are placed in stacks of no more than five, wrapped in plastic bags and incubated at 35° C. • Indication of result(s) type (% INH, IC50, Zone size, etc.) • MIC=minimum inhibitory concentration ps 5.8.9. Interpretation of the Results on the Basis of Activity […]

[3] = tested on: MRSA CL 3033; test: as above; details: Staphylococcus aureus
Description: as §2, §3, §4, §5, §6, §7, §8, §9, §10

[4] = tested on: MRCNS CL 3069 (S. epi.); test: as above
Description: as §2, §3, §4, §5, §6, §7, §8, §9, §10

[5] = tested on: MRCNS CL 227 (S. hom.); test: as above
Description: as §2, §3, §4, §5, §6, §7, §8, §9, §10

[6] = tested on: MRCNS CL 202 (S. haem.); test: as above
Description: as §2, §3, §4, §5, §6, §7, §8, §9, §10

[7] = tested on: MRSA COL; test: as above; details: Staphylococcus aureus
Description: as §2, §3, §4, §5, §6, §7, §8, §9, §10

[8] = tested on: E. faecalis CL 5244 (VanB); test: as above; details: Enterococcus faecalis
Description: as §2, §3, §4, §5, §6, §7, §8, §9, §10

[9] = tested on: E. coli ASP #50 (envA+); test: as above; details: Escherichia coli
Description: as §2, §3, §4, §5, §6, §7, §8, §9, §10

[10] = tested on: E. faecium RLA1; test: as above; details: Enterococcus faecium
Description: as §2, §3, §4, §5, §6, §7, §8, §9, §10

[11] = tested on: E. faecalis MB2864; test: as above; details: Enterococcus faecalis
Description: as §2, §3, §4, §5, §6, §7, §8, §9, §10

[12] = tested on: MRCNS CL 546 (S. hom.); test: as above
Description: as §2, §3, §4, §5, §6, §7, §8, §9, §10

[13] = tested on: MRCNS CL 171 (S. haem.); test: as above
Description: as §2, §3, §4, §5, §6, §7, §8, §9, §10

[14] = tested on: E. gallinarum CL 4886 (VanC); test: as above; details: Enterococcus gallinarum
Description: as §2, §3, §4, §5, §6, §7, §8, §9, §10

[15] = tested on: E. faecium CL 5053 (VanA); test: microbe, parasite or virus in culture; details: for MIC, CL5053: E. faecium CL 5053 (VanA)
Summary of the method: as §1

[16] = tested on: E. faecium CL 4931 (VanA); test: microbe, parasite or virus in culture; details: for MIC, CL4931: E. faecium CL 4931 (VanA)
Summary of the method: as §1

CN[C@H](CC(C)C)C(=O)N[C@H]1C(=O)N[C@@H](CC(N)=O)C(=O)N[C@H]2C(=O)N[C@H]3C(=O)N[C@H](C(=O)N[C@H](C(=O)O)c4cc(O)cc(O)c4-c4cc3ccc4O)[C@H](O)c3ccc(c(Cl)c3)Oc3cc2cc(c3O[C@@H]2O[C@H](CO)[C@@H](O)[C@H](O)[C@H]2O[C@H]2C[C@](C)(N)[C@H](O)[C@H](C)O2)Oc2ccc(cc2Cl)[C@H]1O [Vancomycin, vancomycin, reference compound]
MIC ([1]; Enterococcus faecium): 128 µg/mL (≈ 88.3 µM) | MIC, CL5242 ([1]; Table 9): 512 µg/mL (≈ 353 µM) | MIC, CL5242 ([1]; Table 10): 512 µg/mL (≈ 353 µM) | CL5242 (in vitro testing) ([1]; Tables 7 and 8, unit not given): 512 | MIC [2]: 32 µg/mL (≈ 22.1 µM) | MIC [3]: 0.5 to 1 µg/mL (≈ 0.345 to 0.69 µM) | MIC [4]: 2 µg/mL (≈ 1.38 µM) | MIC [5]: 1 µg/mL (≈ 0.69 µM) | MIC [6]: 2 µg/mL (≈ 1.38 µM) | MIC [7]: 1 µg/mL (≈ 0.69 µM) | MIC [8]: 32 µg/mL (≈ 22.1 µM) | MIC [9]: 256 µg/mL (≈ 177 µM) | MIC [10]: 2 µg/mL (≈ 1.38 µM) | MIC [11]: 2 µg/mL (≈ 1.38 µM) | MIC [12]: 1 µg/mL (≈ 0.69 µM) | MIC [13]: 2 µg/mL (≈ 1.38 µM) | MIC [14]: 16 µg/mL (≈ 11 µM) | MIC ([15]; Enterococcus faecium): 2050 µg/mL (≈ 1410 µM) | MIC, CL5053 ([15]; Table 9): 2050 µg/mL (≈ 1410 µM) | MIC, CL5053 ([15]; Table 10): 2050 µg/mL (≈ 1410 µM) | CL5053 (in vitro testing) ([15]; Tables 7 and 8, unit not given): 2048 | MIC ([16]; Enterococcus faecium): 2050 µg/mL (≈ 1410 µM) | MIC, CL4931 ([16]; Table 9): 2050 µg/mL (≈ 1410 µM) | MIC, CL4931 ([16]; Table 10): 2050 µg/mL (≈ 1410 µM) | CL4931 (in vitro testing) ([16]; Tables 7 and 8, unit not given): 2048
